Assay [1] has as its target Glutamate receptor ionotropic, NMDA 1 (Rattus norvegicus, UniProt P35439).
The next assay concerns the target Glutamate receptor 3 (Rattus norvegicus, UniProt P19492).
Assay [2] concerns the target Glutamate receptor ionotropic, kainate 1 (Rattus norvegicus, UniProt P22756).

SMILES strings stand for the structures. Values joined by “and” are separate entries in the source; they are usually repeats but may differ in a detail not shown here. Equal entries are not always repeated. A value given as a limit tells only on which side of the number the result lay.

Chain of Glutamate receptor ionotropic, kainate 1 (P22756 whole entry): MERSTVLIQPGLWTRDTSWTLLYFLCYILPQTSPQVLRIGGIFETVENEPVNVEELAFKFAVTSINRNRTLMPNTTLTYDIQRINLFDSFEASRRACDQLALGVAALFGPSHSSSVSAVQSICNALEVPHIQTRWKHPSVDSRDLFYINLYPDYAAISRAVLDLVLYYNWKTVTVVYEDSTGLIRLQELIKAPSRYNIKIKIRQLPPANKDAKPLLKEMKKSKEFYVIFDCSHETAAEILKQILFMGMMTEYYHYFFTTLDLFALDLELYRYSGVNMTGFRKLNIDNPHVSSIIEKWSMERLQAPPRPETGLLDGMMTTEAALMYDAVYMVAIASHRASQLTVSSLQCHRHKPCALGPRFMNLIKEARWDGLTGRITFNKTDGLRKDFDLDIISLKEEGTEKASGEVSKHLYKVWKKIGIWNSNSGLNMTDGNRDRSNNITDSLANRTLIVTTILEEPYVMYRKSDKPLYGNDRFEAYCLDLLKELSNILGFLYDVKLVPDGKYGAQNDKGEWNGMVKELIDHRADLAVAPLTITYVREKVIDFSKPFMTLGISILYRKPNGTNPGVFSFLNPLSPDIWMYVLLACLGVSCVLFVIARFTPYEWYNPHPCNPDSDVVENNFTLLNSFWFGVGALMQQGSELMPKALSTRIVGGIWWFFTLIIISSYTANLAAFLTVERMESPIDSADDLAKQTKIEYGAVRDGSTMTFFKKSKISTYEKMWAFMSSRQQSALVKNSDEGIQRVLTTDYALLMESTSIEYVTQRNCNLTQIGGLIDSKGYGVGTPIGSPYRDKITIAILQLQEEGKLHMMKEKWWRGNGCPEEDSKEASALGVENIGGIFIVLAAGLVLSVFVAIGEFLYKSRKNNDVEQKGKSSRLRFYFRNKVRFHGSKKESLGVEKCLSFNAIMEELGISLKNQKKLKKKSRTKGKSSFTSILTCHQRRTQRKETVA
Chain of Glutamate receptor 3 (P19492 whole entry): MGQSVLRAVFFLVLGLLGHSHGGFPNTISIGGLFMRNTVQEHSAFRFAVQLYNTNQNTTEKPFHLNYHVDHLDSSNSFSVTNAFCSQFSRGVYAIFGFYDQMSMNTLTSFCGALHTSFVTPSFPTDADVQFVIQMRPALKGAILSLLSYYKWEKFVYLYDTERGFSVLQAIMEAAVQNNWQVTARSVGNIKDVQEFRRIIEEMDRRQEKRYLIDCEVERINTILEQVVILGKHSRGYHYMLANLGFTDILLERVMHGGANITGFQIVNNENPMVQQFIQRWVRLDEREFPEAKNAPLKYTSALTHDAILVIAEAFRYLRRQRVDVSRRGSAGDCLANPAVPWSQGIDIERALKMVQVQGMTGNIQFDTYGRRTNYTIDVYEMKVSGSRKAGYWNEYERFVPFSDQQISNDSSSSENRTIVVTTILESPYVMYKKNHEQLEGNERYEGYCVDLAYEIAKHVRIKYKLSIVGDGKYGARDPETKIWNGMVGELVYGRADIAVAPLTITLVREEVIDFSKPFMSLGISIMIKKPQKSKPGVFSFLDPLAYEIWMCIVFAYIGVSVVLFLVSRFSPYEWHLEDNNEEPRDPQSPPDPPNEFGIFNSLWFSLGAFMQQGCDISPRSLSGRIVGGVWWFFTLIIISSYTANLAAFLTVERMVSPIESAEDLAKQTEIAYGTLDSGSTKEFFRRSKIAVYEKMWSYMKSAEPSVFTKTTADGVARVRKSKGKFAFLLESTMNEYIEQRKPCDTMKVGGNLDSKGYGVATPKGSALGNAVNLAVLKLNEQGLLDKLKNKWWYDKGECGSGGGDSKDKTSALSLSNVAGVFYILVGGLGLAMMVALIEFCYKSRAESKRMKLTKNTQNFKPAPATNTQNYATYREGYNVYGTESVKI

By Ki is commonly meant the dissociation constant of the complex between target and ligand, obtained from inhibition or displacement. With `Cc1onc(C(=O)O)c1CC(N)C(=O)O` [(S)-2-AMINO-3-(3-CARBOXY-5-METHYLISOXAZOL-4-YL)PROPIONIC ACID], the Ki in assay [1] was above 10 µM; on Glutamate receptor 3, 0.02 µM; in assay [2] it was 6.3 µM.
For the compound `Cc1onc(C(=O)O)c1C[C@H](N)C(=O)O`, the inhibition constant Ki in assay [1] is above 10 µM; at Glutamate receptor 3 it was 0.025 µM; in assay [2] it was 3.6 µM.
`C[C@H](NC(=O)CNC(=O)[C@@H](NC(=O)[C@H](Cc1ccccc1)NC(=O)CNC(=O)CNC(=O)[C@@H](N)Cc1ccccc1)[C@@H](C)O)C(=O)N[C@@H](CCCN=C(N)N)C(=O)N[C@@H](CCCCN)C(=O)N[C@@H](CO)C(=O)N[C@@H](C)C(=O)N[C@@H](CCCN=C(N)N)C(=O)N[C@@H](CCCCN)C(N)=O` [OFQ/N (1-11),[Tyr10]]: the Ki was above 10 µM in assay [1], 0.27 µM at Glutamate receptor 3 and above 10 µM in assay [2].
`N[C@@H](Cc1conc1C(=O)O)C(=O)O` [Demethyl-ACPA]: the Ki is above 10 µM in assay [1]; 0.039 µM and 0.1 µM on Glutamate receptor 3.
Take `Cc1onc(C(=O)O)c1C[C@@H](N)C(=O)O` [(R)-ACPA]: the inhibition constant (Ki) in assay [1] and in assay [2] was above 10 µM each time.
Consider `N[C@@H](Cc1conc1C(=O)O)C(=O)O` [(R)-Demethyl-ACPA], for which the inhibitory constant (Ki) was 4.5 µM in assay [1], 9.4 µM at Glutamate receptor 3 and above 10 µM in assay [2].

The values above are taken from BindingDB's records for doi:10.1002/chir.1172 (The Royal Danish School of Pharmacy, 2001).
